# “Also recorded” adds a separate entry of the source. Counter-ions that a name gives are not always drawn.
# Experiments:
# Type in all cases: cell-based
# IκBα = assay: Immunoblot of phosphorylated IκBα in HEK293 cells
# Description: (§1) To measure endogenous level of several proteins in response to TPA induction and compound I, HEK293 cells were lysed with RIPA buffer (10 mM Tris-HCl pH 7.5, 1 mM EDTA, 0.1% sodium dodecyl sulfate, 0.1% deoxycholate, and protease inhibitor). Whole cell extracts were subjected to immunoblot analysis with the following antibodies: p65 (F-6), p50 (E-10), p52 (C-5), RelB (C-19), IκBα (C-21), PCNA (F-2) were obtained from Santa Cruz Biotechnology (Santa Cruz, Calif.). IKKα, IKKβ, IKKγ, phospho-IκBα, phospho-IKKα/β, phospho-IKKγ, pohospho-Stat3 (Tyr 705 and Ser 727), phospho-p65 (Ser536 and Ser276), phospho-p44/42, phospho-JNKs were purchased from Cell Signaling (Danvers, Mass.), and α-tubulin from Sigma (St. Louis, Mo.). Nuclear and cytoplasmic extracts were prepared with HEK293 cells by NE-PER Nuclear and Cytoplasmic Extraction Reagents (Pierce Biotechnology, Rockford, Ill.) according to the manufacturer's protocol.
# To characterize the activity of compound I in targeting events upstream of NFκB, endogenous levels of kinases involved in NFκB activation were examined by immunoblot analysis. The well-established upstream regulators of NFκB activation are IKKα, IKKβ, and IκBα. […] Moreover, the phosphorylation of IκBα was inhibited even at 1.1 μM showing dose-dependent decrease by compound I pretreatment. […] In addition, compound I inhibits TNFα-induced phosphorylation of IKKα/β and IκBα at 1 hour. IKKβ from IKKα was not able to be distinguished in this analysis with antibodies which detect phosphorylated IKKα at Ser176/180 and IKKβ at Ser177/181. TPA-induced phosphorylation of IκBα is mediated primarily through IKKβ catalytic activity; thus compound I represses phosphorylation of IKKβ and in an embodiment both IKKβ and IKKα. […] The total protein levels of IKKα/β, IKKγ, and IκBα were not affected. Thus, upstream activation events rather than transcription factor binding to DNA are targeted by compound I when it inhibits NFκB induction.
# IKKα/β = assay: Immunoblot of phosphorylated IKKα/β in HEK293 cells
# Description: as §1
# To characterize the activity of compound I in targeting events upstream of NFκB, endogenous levels of kinases involved in NFκB activation were examined by immunoblot analysis. The well-established upstream regulators of NFκB activation are IKKα, IKKβ, and IκBα. […] Moreover, the phosphorylation of IκBα was inhibited even at 1.1 μM showing dose-dependent decrease by compound I pretreatment. […]
# [1] = system: MCF-7, T47D, and MDA-MB-231 breast cancer cell lines; assay: Matrigel invasion assay
# Description: Breast cancer cell lines, MCF-7, T47D, and MDA-MB-231 were used to measure the effect of compound I on TPA-induced invasion activity using Matrigel Invasion Chamber (BD Bioscience, San Jose, Calif.) according to the manufacturer's protocol. Matrigel-coated chambers containing an 8 μm pore size filter were fitted into a 24-well tissue culture plate. Briefly, breast cancer cells (1×10^5 cells/ml) of each cell line were seeded into […] Matrigel-coated chambers with DMSO, TPA, or TPA plus compound I conditions and incubated for 24 hrs. The media wells for each plate contained only standard growth medium. After 24 hrs the non-invading cells were removed from the upper side of the chamber by cotton tipped applicators. The invaded cells on the bottom side were stained using Diff-Quik staining (Dade Behring, Deerfield, Ill.) and photographed. Three independent results were very similar.
# In order to evaluate the potential therapeutic activity of the compound, tests for the biological activity of compound I were performed. […] Following anchorage-independent colony induction in TPA-treated cells without or with compound I, colonies were lysed and measured with CyQuant GR Dye to detect DNA by fluorescence plate reader as a measure of colony count. Total transformed colony numbers were calculated from RFU and cell dose curve of JB6 cells. […]
smiles,measurement,setting,value
"Cc1cc(N)ccc1N=Nc1ccc(S(=O)(=O)CCOS(=O)(=O)O)cc1 [compound I, 2-(4-((4-amino-2-methylphenyl)diazenyl)phenylsulfonyl)ethyl hydrogen sulfate]",TPA-induced phosphorylation of IκBα,IκBα; 1.1 μM,inhibited; also recorded: reduced
same,TPA-induced phosphorylation of IκBα,"IκBα; 17.0 and 8.5 μM pretreatment, HEK293",almost completely blocked; also recorded: complete blocking
same,"Total protein levels of IKKα/β, IKKγ, and IκBα",IκBα; HEK293 immunoblot,not affected
same,TPA-induced phosphorylation of IκBα,IκBα; at 6 and 12 hours,inhibited
same,TNFα-induced phosphorylation of IκBα,IκBα; at 1 hour,inhibits
same,TPA-induced phosphorylation of IKKα/β,"IKKα/β; HEK293, compared with IκBα inhibition at 17.0 and 8.5 μM",reduces
same,TNFα-induced phosphorylation of IKKα/β,IKKα/β; at 1 hour,inhibits
same,Basal invasive activity,[1]; MBA-MB-231 cells,completely inhibited
same,TPA-increased invasion,"[1]; three breast cancer cell lines, 24 hrs",completely inhibited; also recorded: inhibits
